The source of these data is ChEMBL document CHEMBL4418305, “Alkyl-, acyl-, urea-, and aza-uracil sulfide:quinone oxidoreductase inhibitors” (2017).

Bounds are passed on as bounds.

For test [1], the target named is T1, Sulfide:quinone oxidoreductase, mitochondrial (Homo sapiens, UniProt Q9Y6N5). Nature of the test: Inhibition of SQOR (unknown origin) at 10 uM using sodium sulfide, sodium sulfite and coenzyme Q1 by UV absorbance method relative to control.
Target sequence in this assay (Q9Y6N5 whole entry, looked up): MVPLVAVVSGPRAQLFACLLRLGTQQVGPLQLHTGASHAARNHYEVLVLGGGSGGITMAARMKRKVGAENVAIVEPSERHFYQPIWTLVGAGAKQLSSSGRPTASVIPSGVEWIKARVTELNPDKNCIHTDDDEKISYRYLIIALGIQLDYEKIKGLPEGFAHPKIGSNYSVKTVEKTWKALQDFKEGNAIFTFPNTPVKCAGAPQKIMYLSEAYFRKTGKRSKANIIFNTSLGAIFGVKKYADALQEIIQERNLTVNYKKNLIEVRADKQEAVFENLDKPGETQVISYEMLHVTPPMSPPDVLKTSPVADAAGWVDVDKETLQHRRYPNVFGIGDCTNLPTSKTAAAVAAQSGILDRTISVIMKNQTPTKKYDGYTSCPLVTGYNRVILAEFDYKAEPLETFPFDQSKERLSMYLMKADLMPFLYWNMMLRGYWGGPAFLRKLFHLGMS
In test [2] the target is T1, Sulfide:quinone oxidoreductase, mitochondrial. The test is described as follows: Inhibition of SQOR (unknown origin) using sodium sulfide, sodium sulfite and coenzyme Q1 by UV absorbance method.
Target sequence in this assay (Q9Y6N5 whole entry): as the sequence (Q9Y6N5 whole entry, looked up) above

As for `CCCCCC(=O)n1nc(Br)c(=O)[nH]c1=O`, the inhibition in test [1] lay within 10 to 50%. Moreover, the IC50 in test [2] was less than 20 µM.
As for `CCCCCCCC(=O)n1cc(Br)c(=O)[nH]c1=O`, in test [1], the inhibition is 10 to 50%. In addition, the IC50 in test [2] was in the range of 20 to 100 µM.
In test [1], `CCCCCn1cc(F)c(=O)n(CCCCC)c1=O` showed an inhibition greater than 50%. This molecule had an IC50 in test [2] of less than 20 µM.
In test [1], `CCCCCCCC(=O)n1nc(Br)c(=O)[nH]c1=O` returned an inhibition greater than 50%. The IC50 in test [2] is less than 20 µM.
`CCCCCn1c(Cl)cc(=O)n(CCCCC)c1=O` registered an inhibition in test [1] of 10 to 50%.
As for `CCCCCCCCNC(=O)n1cc(Cl)c(=O)[nH]c1=O`, in test [1], the inhibition was greater than 50%. In test [2], this molecule registered an IC50 of less than 20 µM.
As for `CCCCCCCCCCCCCC(=O)n1nc(Br)c(=O)[nH]c1=O`, the inhibition in test [1] was greater than 50%.
Take `CCCCCCC(=O)n1cc(F)c(=O)n(C)c1=O`: in test [1], the inhibition lay within 10 to 50%.
In turn, `O=C(C1CCCCC1)n1nc(Br)c(=O)[nH]c1=O` had an inhibition in test [1] greater than 50%. Moreover, the IC50 in test [2] is less than 20 µM.
Regarding `CCCCCCNC(=O)n1cc(F)c(=O)[nH]c1=O` [CARMOFUR], the inhibition in test [1] lay in the range of 10 to 50%. Further, the IC50 in test [2] is 20 to 100 µM.
In turn, `CCCCCCCCn1cc(F)c(=O)n(CCCCCCCC)c1=O` came in with an inhibition in test [1] of 10 to 50%. For the same molecule, the IC50 in test [2] is less than 20 µM.
`CCCCCCCC(=O)n1nc(C)c(=O)[nH]c1=O` yielded an inhibition in test [1] of 10 to 50%. This molecule also had an IC50 in test [2] of 20 to 100 µM.
Molecule `CCCCCCn1cc(F)c(=O)n(CCCCCC)c1=O` yielded an inhibition in test [1] greater than 50%. The same molecule registered an IC50 in test [2] of less than 20 µM.
In test [1], `CC(C)C(=O)n1nc(Br)c(=O)[nH]c1=O` registered an inhibition of 10 to 50%.
`O=c1c(F)cn(CCC2CCCCC2)c(=O)n1CCC1CCCCC1` registered an inhibition in test [1] of 10 to 50%.
`O=C(NCc1ccccc1)n1cc(F)c(=O)[nH]c1=O`: the inhibition in test [1] was in the range of 10 to 50%.
`O=C(c1ccccc1)n1nc(Br)c(=O)[nH]c1=O` showed an inhibition in test [1] of 10 to 50%.
In test [1], `O=C(CC1CCCCC1)n1nc(Br)c(=O)[nH]c1=O` returned an inhibition greater than 50%. Moreover, the IC50 in test [2] was less than 20 µM.
The like results for `CCCCCCCCNC(=O)n1cc(F)c(=O)[nH]c1=O` were, in that order, 10 to 50% and less than 20 µM.
Molecule `CCCCCCCC(=O)n1c(C)c(Br)c(=O)[nH]c1=O` had an inhibition in test [1] of 10 to 50%. This molecule had an IC50 in test [2] of less than 20 µM.
For `CCCCCCCC(=O)n1c(Cl)cc(=O)[nH]c1=O`, the inhibition in test [1] lay in the range of 10 to 50%. This molecule displayed an IC50 in test [2] of less than 20 µM.
AUROTHIOGLUCOSE [listing 1 of 2 here] had an inhibition in test [1] of 95 to 100%.
Consider AUROTHIOGLUCOSE [listing 2 of 2 here], for which, in test [2], the IC50 was in the range of 0.925 to 0.93 µM and the negative logarithm of the IC50 (pIC50) amounted to 6.034.
With `O=C(NCCc1ccccc1)n1cc(F)c(=O)[nH]c1=O`, the inhibition in test [1] worked out at 7%.
Turning to `CCCCCCCn1cc(F)c(=O)n(CCCCCCC)c1=O`, the inhibition in test [1] was greater than 50%. This molecule also gave an IC50 in test [2] of less than 20 µM.
As to `CCCCCCCC(=O)n1c(I)cc(=O)[nH]c1=O`, the inhibition in test [1] lay within 10 to 50%. In addition, the IC50 in test [2] is less than 20 µM.
The like results for `CCCCCCCCCC(=O)n1nc(Br)c(=O)[nH]c1=O` were, in that order, greater than 50% and 100 to 500 µM.
In test [1], `CCCCCCCCCCCC(=O)n1nc(Br)c(=O)[nH]c1=O` returned an inhibition greater than 50%.
As for `CCCCCCCCn1c(C)c(F)c(=O)n(CCCCCCCC)c1=O`, in test [1], the inhibition lay within 10 to 50%. Besides, in test [2], the IC50 is less than 20 µM.
Regarding `CCCCCCCC(=O)n1cc(Cl)c(=O)[nH]c1=O`, the inhibition in test [1] is 10 to 50%.
Molecule `CCCNC(=O)n1cc(F)c(=O)[nH]c1=O` gave an inhibition in test [1] of 6%.
Molecule `CCCCCn1c(C)c(F)c(=O)n(CCCCC)c1=O` came in with an inhibition in test [1] greater than 50%. The IC50 in test [2] was less than 20 µM.
As for `O=C(CCC1CCCC1)n1nc(Br)c(=O)[nH]c1=O`, in test [1], the inhibition was greater than 50%. In test [2], the IC50 is less than 20 µM.
The molecule `CCCCCCCC(=O)n1cc(F)c(=O)[nH]c1=O` returned an inhibition in test [1] of 3%.
Consider `O=c1c(F)cn(CCc2ccccc2)c(=O)n1CCc1ccccc1`, for which, in test [1], the inhibition was 10 to 50%.
As to `CC(C)CCCn1cc(F)c(=O)n(CCCC(C)C)c1=O`, the inhibition in test [1] lay within 10 to 50%.
